Test results published in PMC6753678, “Fueling Open Innovation for Malaria Transmission-Blocking Drugs: Hundreds of Molecules Targeting Early Parasite Mosquito Stages” (Frontiers in Microbiology, 2019).
Where two headings read alike, the source gives them in different places.

How the values were obtained:
[1] = system: P. falciparum late stage (stages IV-V) gametocytes; assay: P. falciparum late stage gametocyte ATP depletion assay (Pf GC-ATP); settings: 1: YES; 0: NO
[2] = system: P. falciparum female gametocytes; set-up: method as in Miguel-Blanco et al 2017; settings: TCAMS screen comparison; ref Miguel-Blanco et al 2017; read-out: Pf FGAA IC50; cited from earlier work
[3] = system: HepG2 cells; assay: HepG2 cytotoxicity assay; settings: HepG2 cytotoxicity unified across the three screens
Method in brief: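 HepG2 cells, 2,500 per well in MEM with 10% FBS and 1% NEAA, exposed to compounds for 48 h at 37°C, 5% CO2. Viability read by fluorescence; percent inhibition relative to 50 μM doxorubicin and DMSO controls.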

[4] = system: P. falciparum late stage (stages IV-V) gametocytes; set-up: method as in Almela et al 2016; settings: TCAMS screen comparison; ref Almela et al 2016; read-out: Pf GCT ATP IC50; cited from earlier work
[5] = system: P. falciparum female gametocytes; assay: P. falciparum female gametogenesis assay (Pf FGAA); settings: 1: YES; 0: NO
[6] = system: HepG2 cells; settings: cited from earlier work
[7] = value reported with the Pf FGAA screen, ref Miguel-Blanco et al 2017
[8] = value reported with the Pf GCT ATP screen, ref Almela et al 2016

## CCOc1ccc2nc3cc(NC(=O)c4ccco4)ccc3c(N)c2c1 [TCMDC-125004]
[1]
  Is compound selective in assay? Pf GC-ATP active?: 1 (1: YES)
[2]
  IC50: 4550 nM
[3]
  Unified cytotox: 17.72 µM
[4]
  IC50: 190 nM
[5]
  Is compound selective in assay? Pf FGAA active?: 0 (0: NO)
[6]; [7]
  HepG2 cytoxicity: 25.15 µM
[6]; [8]
  HepG2 cytoxicity: 10.3 µM

## Cc1ccccc1OCC(O)CNC1CCC(NCC(O)COc2ccccc2C)CC1 (centres unmarked) [TCMDC-125142]
[1]
  Is compound selective in assay? Pf GC-ATP active?: 1 (1: YES)
[2]
  IC50: 1110 nM
[3]
  Unified cytotox: 3.93 µM
[4]
  IC50: 140 nM
[5]
  Is compound selective in assay? Pf FGAA active?: 0 (0: NO)
[6]; [7]
  HepG2 cytoxicity: 4.07 µM
[6]; [8]
  HepG2 cytoxicity: 3.78 µM

## Cc1c(Cl)cccc1N=C(S)NN=Cc1ccccn1 [TCMDC-125487]
[1]
  Is compound selective in assay? Pf GC-ATP active?: 1 (1: YES)
[2]
  IC50: 28 nM
[3]
  Unified cytotox: 100.00 µM
[4]
  IC50: 270 nM
[5]
  Is compound selective in assay? Pf FGAA active?: 1 (1: YES)
[6]; [7]
  HepG2 cytoxicity: >100 µM
[6]; [8]
  HepG2 cytoxicity: >25 µM

## Fc1ccc(NC(S)=NN=Cc2ccccn2)cc1 [TCMDC-125521]
[1]
  Is compound selective in assay? Pf GC-ATP active?: 1 (1: YES)
[2]
  IC50: 27.1 nM
[3]
  Unified cytotox: 100.00 µM
[4]
  IC50: 120 nM
[5]
  Is compound selective in assay? Pf FGAA active?: 1 (1: YES)
[6]; [7]
  HepG2 cytoxicity: >100 µM
[6]; [8]
  HepG2 cytoxicity: 23.35 µM

## SC(=Nc1ccc(Cl)c(Cl)c1)NN=Cc1ccccn1 [TCMDC-125522]
[1]
  Is compound selective in assay? Pf GC-ATP active?: 1 (1: YES)
[2]
  IC50: 80 nM
[3]
  Unified cytotox: 6.28 µM
[4]
  IC50: 70 nM
[5]
  Is compound selective in assay? Pf FGAA active?: 1 (1: YES)
[6]; [7]
  HepG2 cytoxicity: 3.47 µM
[6]; [8]
  HepG2 cytoxicity: 9.1 µM

## c1ccc2sc(Sc3ncnc4sccc34)nc2c1 [TCMDC-125539]
[1]
  Is compound selective in assay? Pf GC-ATP active?: 1 (1: YES)
[2]
  IC50: 140 nM
[3]
  Unified cytotox: 100.00 µM
[4]
  IC50: 500 nM
[5]
  Is compound selective in assay? Pf FGAA active?: 1 (1: YES)
[6]; [7]
  HepG2 cytoxicity: >100 µM
[6]; [8]
  HepG2 cytoxicity: >25 µM

## S=C(NN=Cc1ccccn1)NC1CC2C=CC1C2 (centres unmarked) [TCMDC-125752]
[1]
  Is compound selective in assay? Pf GC-ATP active?: 0 (0: NO)
[2]
  IC50: 15.3 nM
[3]
  Unified cytotox: 0.70 µM
[4]
  IC50: 110 nM
[5]
  Is compound selective in assay? Pf FGAA active?: 1 (1: YES)
[6]; [8]
  HepG2 cytoxicity: 0.7 µM

## COc1ccc(CCNCCCCCCNCCc2ccc(-c3ccccc3)cc2)cc1OC.Cl [TCMDC-131267]
[1]
  Is compound selective in assay? Pf GC-ATP active?: 1 (1: YES)
[2]
  IC50: 1260 nM
[3]
  Unified cytotox: 5.07 µM
[4]
  IC50: 170 nM
[5]
  Is compound selective in assay? Pf FGAA active?: 0 (0: NO)
[6]; [7]
  HepG2 cytoxicity: 6.90 µM
[6]; [8]
  HepG2 cytoxicity: 3.25 µM

## COc1ccc(CCNCCCCCCNCCc2ccc(Cl)c3ccccc23)cc1OC.Cl [TCMDC-131270]
[1]
  Is compound selective in assay? Pf GC-ATP active?: 1 (1: YES)
[2]
  IC50: 580 nM
[3]
  Unified cytotox: 2.68 µM
[4]
  IC50: 130 nM
[5]
  Is compound selective in assay? Pf FGAA active?: 0 (0: NO)
[6]; [7]
  HepG2 cytoxicity: 2.12 µM
[6]; [8]
  HepG2 cytoxicity: 3.23 µM

## Br.Oc1ccc(CCNCCCCCCNCCc2ccc(Cl)c3ccccc23)cc1O [TCMDC-131271]
[1]
  Is compound selective in assay? Pf GC-ATP active?: 1 (1: YES)
[2]
  IC50: 2380 nM
[3]
  Unified cytotox: 12.36 µM
[4]
  IC50: 530 nM
[5]
  Is compound selective in assay? Pf FGAA active?: 0 (0: NO)
[6]; [7]
  HepG2 cytoxicity: 11.22 µM
[6]; [8]
  HepG2 cytoxicity: 13.5 µM

## COc1ccc(CCNCCCCCCNCCc2ccc(Cl)cc2)c(Cl)c1OC.Cl [TCMDC-131272]
[1]
  Is compound selective in assay? Pf GC-ATP active?: 1 (1: YES)
[2]
  IC50: 830 nM
[3]
  Unified cytotox: 5.87 µM
[4]
  IC50: 260 nM
[5]
  Is compound selective in assay? Pf FGAA active?: 0 (0: NO)
[6]; [7]
  HepG2 cytoxicity: 5.54 µM
[6]; [8]
  HepG2 cytoxicity: 6.2 µM

## Br.CCCCc1ccc(CCNCCCCCCNCCc2ccc(O)c(O)c2)cc1 [TCMDC-131281]
[1]
  Is compound selective in assay? Pf GC-ATP active?: 1 (1: YES)
[2]
  IC50: 2150 nM
[3]
  Unified cytotox: 6.41 µM
[4]
  IC50: 540 nM
[5]
  Is compound selective in assay? Pf FGAA active?: 0 (0: NO)
[6]; [7]
  HepG2 cytoxicity: 4.63 µM
[6]; [8]
  HepG2 cytoxicity: 8.19 µM
